# In PubChem BioAssay (NCI):
#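 Exposure lasted 48 hours, with cells grown in 96-well plates and compounds tested at five concentrations. At the GI50, growth is halved. TGI is the concentration that stops growth completely.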
# Columns and labels:
# Experiment in all cases: DTP human tumour cell line panel, 48 h
# [1] = tested on: U251 CNS
# [2] = tested on: OVCAR-8 ovarian
# [3] = tested on: SK-OV-3 ovarian
# [4] = tested on: SNB-75 CNS
# [5] = tested on: NCI-H226 lung
# [6] = tested on: OVCAR-4 ovarian
# [7] = tested on: UACC-62 melanoma
# [8] = tested on: SF-295 CNS
# [9] = tested on: RPMI-8226 leukemia
# [10] = tested on: MCF7 breast
Compound,TGI [1] [µM],TGI [2] [µM],TGI [3] [µM],TGI [4] [µM],TGI [5] [µM],TGI [6] [µM],TGI [7] [µM],TGI [8] [µM],TGI [9] [µM],GI50 [1] [µM],GI50 [9] [µM],GI50 [2] [µM],GI50 [3] [µM],GI50 [5] [µM],GI50 [6] [µM],GI50 [7] [µM],GI50 [8] [µM],GI50 [10] [µM],TGI [10] [µM],GI50 [4] [µM]
CCOC(=O)C1=C(NNC(=O)Cc2ccccc2)CSC1=Nc1ccccc1,> 100,> 100,> 100,> 100,> 100,> 100,> 100,> 100,,,,,,,,,,,,
O=c1c2cc(Br)ccc2nc(-c2ccccc2Cl)n1NCC1(O)OCC(O)C(O)C1O (centres undefined),> 100,> 100,> 100,> 100,> 100,> 100,> 100,> 100,> 100,,,,,,,,,,,
N#C/C(=C1\NN=C(N)C(c2ccc(Cl)cc2)=C1O)c1ccc(Cl)cc1,> 100,> 100,> 100,> 100,> 100,> 100,> 100,> 100,> 100,,,,,,,,,,,
O=C(O)CCSCCCN1C(=O)c2ccccc2C1=O,> 100,> 100,> 100,> 100,> 100,> 100,> 100,> 100,> 100,,,,,,,,,,,
[C-]#[O+].[C-]#[O+].[C-]#[O+].[C-]#[O+].[Ir].[Ir].[O-]c1ccc2ccccc2c1C=Nc1ccc(N=Cc2c([O-])ccc3ccccc23)cc1,> 100,> 100,> 100,,> 100,> 100,> 100,> 100,> 100,> 100,> 100,> 100,> 100,> 100,> 100,> 100,> 100,,,
CC(CN1CCN(C)CC1)CN1c2ccccc2Sc2ccc(C(F)(F)F)cc21 (centres undefined),3.12,3.34,,7.85,8.51,4.4,4.18,4.31,5.49,1.68,2.43,1.76,,2.6,2.16,2.09,1.97,1.64,3.16,2.21
COc1ccc(C2=NN(C(=O)COc3ccc(Cl)cc3)C(O)(c3ccc(Cl)cc3)C2)cc1 (centres undefined),> 100,> 100,> 100,> 100,> 100,> 100,> 100,> 100,> 100,,,,,,,,,,,
CC(=O)Nc1ccccc1C=C1c2ccccc2-c2ccccc21,60.4,47.4,,33.7,66.8,> 100,> 100,46.2,> 100,,,,,,,,,,50.3,
CCc1ccccc1N1CCN(C(=O)c2cc(OC)c(OC)c(OC)c2)CC1,4.14,13.6,4.55,> 100,5.6,,> 68.8,0.0341,23.1,,,,,,,,,,35,
CS(=O)(=O)OCCn1cnc2nc(NC(=O)c3ccccc3)[nH]c(=O)c21,> 100,> 100,> 100,> 100,> 100,> 100,> 100,> 100,> 100,,,,,,,,,,,
CC(=O)Nc1ccc(/C=N\N2C(=O)c3ccccc3C2=O)cc1,,> 100,,> 100,> 100,> 100,> 100,> 100,> 100,,,,,,,,,,,
C[C@H]1[C@H](C)CC[C@]2(C(=O)N3CCN(C)CC3)CC[C@]3(C)C(=CC[C@@H]4[C@@]5(C)C/C(=C/c6cccnc6)C(=O)C(C)(C)[C@@H]5CC[C@]43C)[C@H]12,1.87,,3.22,2.34,3.77,2.48,2.52,3.01,4.15,0.547,1.49,,1.71,1.81,1.07,1.15,1.6,,,1.08
NC(=O)c1oc([N+](=O)[O-])c(-c2ccccc2)c1-c1ccccc1,71.1,68.2,> 100,> 100,28.1,28.5,21.3,35.3,,,,,,,,,,,> 100,
COc1ccc(-c2cc(-c3ccccc3)nc(N3CCN(CCNc4ccnc5cc(Cl)ccc45)CC3)n2)cc1,3.45,,22,28.8,25.1,4.05,11.2,33,4.57,1.56,1.65,,10.3,4.14,1.87,3.48,16.6,1.71,3.45,14.9
CC1CC2C(=O)N(c3ccccc3)C(=O)C2c2c1c1ccccc1n2Cc1ccccc1 (centres undefined),,> 100,> 100,,> 100,> 100,> 100,> 100,> 100,,,,,,,,,,,
O=C(/C=C/c1ccc(Cl)c(Cl)c1)c1ccc(F)cc1,25.7,30.8,83.5,58.3,92.6,51.1,28.8,41.6,12.6,,,,,,,,,,,
CCN1CCN(CC(=O)Nc2nc3ccc(NCc4ccc(Cl)cc4)cc3s2)CC1,4.03,> 100,7.98,4.5,,90.6,4.03,,4.04,2,1.6,4.59,2.95,,5.25,2.08,,,,1.88
CC1CC(c2cccc3c2OCO3)=Nc2ccccc2S1 (centres undefined),,> 100,> 100,> 100,> 100,> 100,> 100,> 100,> 100,,,,,,,,,,,
CCCCCCC#Cc1ccccc1C#CCO,34.6,46.8,34.4,,,81.6,43.6,30.2,31.4,16.4,15,21.7,18.4,,24.5,19.1,16.2,32.8,> 100,
